# Laboratory results published in US20220211783A1, “GMCI AND DDRI COMBINATION THERAPY FOR TREATING CANCER” (Candel Therapeutics, Inc., priority 2019, published 2022).
# How the values were obtained:
# [1] = test system: lung cancer cells; assay: Double-stranded DNA breaks by H2AX-Ser139 staining, confocal microscopy; assay type: cell-based; conditions: 6 hours after addition of AZD1775 (IC50 concentration) and/or GCV
# [2] = test system: lung cell line e.g., A549, A427, H2030; assay: Cell viability assay (vital dye such as Presto Blue, fluorescence) of GMCI, AZD1775 and their combination; assay type: cell-based
compound,measurement,setting,value
C=CCn1c(=O)c2cnc(Nc3ccc(N4CCN(C)CC4)cc3)nc2n1-c1cccc(C(C)(C)O)n1 [AZD1775],Double-stranded DNA breaks,[1],occur
same,H2AX(Ser139) staining,[1]; versus untreated cells,large increase in H2AX staining
same,cell viability (fluorescence normalized to samples that received no treatment),"[2]; Day 4, AZD1775 at its IC50 concentration or half of its IC50 concentration, GMCI = AdV-tk 100 MOI + ganciclovir 5 μg/ml",cytotoxic activity
same,EC50,"[2]; stated as the concentration used in the lung cell line, half the IC50 given as 40 nM, read-out: EC50 concentration of the drug",80 nM
